Assay results from patent US10828241B2, “Skin lightening compositions and methods” (SYTHEON LIMITED, priority 2018, dated 2020).

Test system: skin pigmentation
Assay: Clinical study: facial pigment intensity from digital photography
Type: in vivo, human
Settings: lotion with 1.00% acetyl zingerone (Formulation 1A) applied to full face twice daily, group of 17

COc1cc(CC(C(C)=O)C(C)=O)ccc1O [Compd. 1, Acetyl Zingerone]
Pigment Intensity (% Change), Average (4 weeks): −25.580%
Pigment Intensity (% Change), Average (8 weeks): −25.601%
